Assay results published in article PMC8298264, “Function of cofactor Akirin2 in the regulation of gene expression in model human neutrophil-like HL60 cells” (Bioscience Reports, 2021).

What follows are substances tested on human HL60 cells (assay: SWATH-MS proteomics, differential protein representation, akirin2 KO vs WT HL60 cells). Details: KO vs WT HL60 cells; sheet "Under-represented in KO".
Type: cell-based
Experimental: Total proteins were extracted from WT and akirin2 KO HL60 cells using the AllPrep DNA/RNA/Protein Mini Kit (Qiagen) and protein concentration was determined using the BCA Protein Assay with BSA (Sigma–Aldrich) as standard. Protein extracts (150 µg per sample, n=3 biological replicates) from each WT and KO cells were trypsin digested using the FASP Protein Digestion Kit (Expedeon Ltd., Abcam, Cambridge, U.K.) and sequencing grade trypsin (Promega, Madison, WI, U.S.A.) following manufacturer’s recommendations. The resulting peptides were finally desalted on to OMIX Pipette tips C18 (Agilent Technologies, Santa Clara, CA, U.S.A.), dried down and stored at −20 °C until mass spectrometry analysis. […] Three micrograms of each protein digest from the three biological replicates of WT and akirin2 KO HL60 cells were used for the generation of the reference spectral ion library as part of the SWATH-MS analysis.
Peptides were eluted in a 120-min gradient from 5 to 30% solvent B in solvent A followed by 15-min gradient from 30 to 60% solvent B in solvent A (solvent A: 0.1% formic acid in water, solvent B: 0.1% formic acid in acetonitrile) and directly injected into the mass spectrometer for analysis. For IDA experiments, the mass spectrometer was set to scanning full spectra (350–1400 m/z) using 250 ms accumulation time per spectrum, followed by up to 50 MS/MS scans (100–1500 m/z). Candidate ions with a charge state between +2 and +5 counts per second above a minimum threshold of 100 were isolated for fragmentation. One MS/MS spectrum was collected for 100 ms, before adding those precursor ions to the exclusion list for 15 s (mass spectrometer operated by Analyst TF 1.6, AB Sciex). Dynamic background subtraction was turned off. MS/MS analyses were recorded in high-sensitivity mode with rolling collision energy on and a collision energy spread of 5. For SWATH quantitative analysis, six independent samples (three replicates from WT and akirin2 KO HL60 cells, 5 µg each) were subjected to the cyclic DIA of mass spectra using the SWATH variable windows calculator (V 1.0, AB Sciex) and the SWATH acquisition method editor (AB Sciex), similar to established methods. […] For these experiments, a 50-ms survey scan (350–1400 m/z) was acquired at the beginning of each cycle, and SWATH–MS/MS spectra were collected from 100–1500 m/z for 70 ms at high-sensitivity mode, resulting in a cycle time of 3.6 s. Collision energy for each window was determined according to the calculation for a charge +2 ion-centered upon the window with a collision energy spread of 15. To create a spectral library of all the detectable peptides in the samples, the IDA MS raw files were combined and subjected to database search in unison using ProteinPilot software v. 5.0.1 (AB Sciex) with the Paragon algorithm. […] The detected protein threshold was set at 0.05. An independent false discovery rate (FDR) analysis, using the target–decoy approach provided by Protein Pilot (AB Sciex; https://sciex.com/products/software/proteinpilot-software), was used to assess the quality of identifications. Positive identifications were considered when identified proteins reached 1% of global FDR. […] Global normalization was performed according to the Total Area Sums (TAS) of all detected proteins in the samples. […] Heatmaps were prepared using the Heatmapper (http://www.heatmapper.ca/expression/) with average linkage and Euclidean distance measurement method.

Substance	Fold Change	Log (Fold Change)
sp¦Q92608¦DOCK2_HUMAN	0.4625	-0.3349
sp¦O94804¦STK10_HUMAN	0.5498	-0.2598
sp¦P40937¦RFC5_HUMAN	0.4492	-0.3475
sp¦P31040¦SDHA_HUMAN	0.5299	-0.2758
sp¦Q7Z6Z7¦HUWE1_HUMAN	0.5255	-0.2794
sp¦Q14289¦FAK2_HUMAN	0.4591	-0.3381
sp¦P09622¦DLDH_HUMAN	0.516	-0.2873
sp¦Q07812¦BAX_HUMAN	0.5501	-0.2596

Same assay, conditions: KO vs WT; akirin2 KO vs WT HL60 cells; sheet "Under-represented in KO"

Substance	Fold Change	Log (Fold Change)
sp¦Q14692¦BMS1_HUMAN	0.6053	-0.218
sp¦Q8NE71¦ABCF1_HUMAN	0.6253	-0.2039
sp¦Q9Y4W6¦AFG32_HUMAN	0.6186	-0.2086
sp¦Q01650¦LAT1_HUMAN	0.603	-0.2197
sp¦O00264¦PGRC1_HUMAN	0.6168	-0.2099

Same assay, conditions: Over-represented in KO; KO vs WT HL60 cells

Substance	Fold Change	Log (Fold Change)
sp¦Q9P287¦BCCIP_HUMAN	1.299	0.1134
sp¦Q9Y490¦TLN1_HUMAN	1.355	0.1319
sp¦Q9Y266¦NUDC_HUMAN	1.364	0.135
sp¦P07237¦PDIA1_HUMAN	1.346	0.1292
sp¦P23284¦PPIB_HUMAN	1.275	0.1054
sp¦P25786¦PSA1_HUMAN	1.271	0.1042
sp¦Q13283¦G3BP1_HUMAN	1.326	0.1226
sp¦Q15056¦IF4H_HUMAN	1.397	0.1451
sp¦P31689¦DNJA1_HUMAN	1.309	0.117
sp¦P04406¦G3P_HUMAN	1.369	0.1364
sp¦P49137¦MAPK2_HUMAN	1.268	0.1031

Same assay, conditions: SWATH-MS, akirin2 KO vs WT HL60 cells, under-represented in KO

Substance	Fold Change	Log (Fold Change)
sp¦P60953¦CDC42_HUMAN	0.7034	-0.1528
sp¦Q9UNS2¦CSN3_HUMAN	0.6926	-0.1595
sp¦P61604¦CH10_HUMAN	0.7263	-0.1389
sp¦Q14165¦MLEC_HUMAN	0.7439	-0.1285
sp¦P38646¦GRP75_HUMAN	0.7142	-0.1462
sp¦P36404¦ARL2_HUMAN	0.6935	-0.1589
sp¦P12268¦IMDH2_HUMAN	0.7306	-0.1363
sp¦P54709¦AT1B3_HUMAN	0.7448	-0.128
sp¦P29350¦PTN6_HUMAN	0.7017	-0.1538
sp¦O00148¦DX39A_HUMAN	0.7315	-0.1358
sp¦Q9H0U4¦RAB1B_HUMAN	0.704	-0.1524
sp¦Q6P2Q9¦PRP8_HUMAN	0.7423	-0.1294
sp¦O95758¦PTBP3_HUMAN	0.7281	-0.1378

Same assay, conditions: SWATH-MS, akirin2 KO vs WT HL60 cells; over-represented in KO

Substance	Fold Change	Log (Fold Change)
Galectin-1	1.707	0.2322
Chitinase-3-like protein 1	1.904	0.2797
sp¦P14618¦KPYM_HUMAN	1.553	0.1913
Heat shock 70 kDa protein 1B	1.868	0.2713
Cathepsin D	2.358	0.3725
Galectin-10	4.451	0.6485
sp¦P11142¦HSP7C_HUMAN	1.579	0.1983
Vimentin	3.958	0.5975
sp¦Q09666¦AHNK_HUMAN	1.42	0.1523
Transferrin receptor protein 1	3.145	0.4976
Deoxynucleoside triphosphate triphosphohydrolase SAMHD1	1.851	0.2674

Same assay, conditions: SWATH-MS, akirin2 KO vs WT HL60 cells; sheet "Under-represented in KO"

Substance	Fold Change	Log (Fold Change)
sp¦P0CG38¦POTEI_HUMAN	0.7517	-0.1239
sp¦Q02880¦TOP2B_HUMAN	0.7738	-0.1113
sp¦Q86UX7¦URP2_HUMAN	0.7476	-0.1263
sp¦P28070¦PSB4_HUMAN	0.7608	-0.1188
sp¦P10155¦RO60_HUMAN	0.7678	-0.1147
sp¦O43681¦GET3_HUMAN	0.7665	-0.1155

Same assay, conditions: akirin2 KO vs WT HL60 cells; sheet "Over-represented in KO"

Substance	Fold Change	Log (Fold Change)
sp¦P46013¦KI67_HUMAN	1.204	0.08052
sp¦E9PRG8¦CK098_HUMAN	1.224	0.0879
sp¦O14579¦COPE_HUMAN	1.2285	0.08937
sp¦P55072¦TERA_HUMAN	1.115	0.04741
sp¦P15531¦NDKA_HUMAN	1.204	0.08072
sp¦O00231¦PSD11_HUMAN	1.117	0.04806
sp¦E9PAV3¦NACAM_HUMAN	1.243	0.09445
sp¦O43447¦PPIH_HUMAN	1.22	0.08634

Same assay, conditions: akirin2 KO vs WT HL60 cells; sheet "Under-represented in KO"

Substance	Fold Change	Log (Fold Change)
sp¦P00367¦DHE3_HUMAN	0.6801	-0.1674
sp¦Q14204¦DYHC1_HUMAN	0.6536	-0.1847
sp¦P35579¦MYH9_HUMAN	0.3518	-0.4538
sp¦P05556¦ITB1_HUMAN	0.257	-0.5901
sp¦Q9NR31¦SAR1A_HUMAN	0.4316	-0.3649
sp¦P53007¦TXTP_HUMAN	0.3964	-0.4018
sp¦Q08945¦SSRP1_HUMAN	0.3484	-0.4579
sp¦P02792¦FRIL_HUMAN	0.2798	-0.5531
sp¦P84077¦ARF1_HUMAN	0.682	-0.1662
sp¦P78527¦PRKDC_HUMAN	0.4323	-0.3642
sp¦P55809¦SCOT1_HUMAN	0.6768	-0.1696
sp¦O43148¦MCES_HUMAN	0.671	-0.1733
sp¦P12270¦TPR_HUMAN	0.6414	-0.1929
sp¦Q8NF50¦DOCK8_HUMAN	0.4042	-0.3934
sp¦Q96A72¦MGN2_HUMAN	0.6271	-0.2026
